Reference: patent US7964628B2, “Fibrinogen receptor antagonists and their use” (Piramal Life Sciences Limited, priority 2003, dated 2011)
Structures can show the parent of a compound that is named as a salt.

| SMILES | melting point |
| --- | --- |
| CCOC(=O)COc1cc(O)c(C(=O)CN2Cc3cc(C(=N)NO)ccc3C2=O)cc1Cl (hydrate or solvate) [Example 53, (2-Chloro-5-hydroxy-4-{2-[5-(N-hydroxycarbamimidoyl)-1-oxo-1,3-dihydro-isoindol-2-yl]-acetyl}-phenoxy)-acetic acid ethyl ester] | 227 to 228 °C |
| CCCc1c(OCC(=O)OCC)ccc(C(=O)CN2Cc3cc(C(=N)NO)ccc3C2=O)c1O [Example 58, (3-Hydroxy-4-{2-[5-(N-hydroxycarbamimidoyl)-1-oxo-1,3-dihydro-isoindol-2-yl]-acetyl}-2-propyl-phenoxy)-acetic acid ethyl ester] | 211 to 212 °C |
| CCOC(=O)COc1cc(O)c(C(=O)CN2Cc3cc(C(=N)NO)ccc3C2=O)c(OC)c1 [Example 62, (3-Hydroxy-4-{2-[5-(N-hydroxycarbamimidoyl)-1-oxo-1,3-dihydro-isoindol-2-yl]-acetyl}-5-methoxy-phenoxy)-acetic acid ethyl ester] | 209 to 210 °C |
| CCOC(=O)COc1c(SCC)cc(C(=O)CN2Cc3cc(C(=N)NO)ccc3C2=O)cc1SCC [Example 37, (2,6-Bis-ethylsulfanyl-4-{2-[5-(N-hydroxycarbamimidoyl)-1-oxo-1,3-dihydro-isoindol-2-yl]-acetyl}-phenoxy)-acetic acid ethyl ester] | 183 to 184 °C |
| COC(=O)NC(=N)c1ccc2c(c1)CN(CC(=O)c1ccc(OCC(=O)OCC(C)C)cc1)C2=O [Example 11, (4-{2-[5-(Imino-methoxycarbonylamino-methyl)-1-oxo-1,3-dihydro-isoindol-2-yl]-acetyl}-phenoxy)-acetic acid isobutyl ester] | 162 to 163 °C |
| CCOC(=O)COc1ccc(C(=O)CN2Cc3cc(C(=N)N)ccc3C2=O)cc1S(=O)(=O)CC (as salt: salt) (hydrate or solvate) [Example 35, (4-{2-[5-Carbamimidoyl-1-oxo-1,3-dihydro-isoindol-2-yl]-acetyl}-2-ethanesulfonyl-phenoxy)-acetic acid ethyl ester] | 174 to 175 °C |
| N=C(N)c1ccc2c(c1)CN(CC(=O)c1ccc(OCC(=O)O)cc1O)C2=O (as salt: trifluoroacetate) [Example 44, (4-{2-[5-Carbamimidoyl-1-oxo-1,3-dihydro-isoindol-2-yl]-acetyl}-3-hydroxy-phenoxy)-acetic acid] | 262 °C (dec.) |
| CCOC(=O)COc1ccc(C(=O)CN2Cc3cc(C(=N)NO)ccc3C2=O)c(O)c1C (hydrate or solvate) [Example 55, (3-Hydroxy-4-{2-[5-(N-hydroxycarbamimidoyl)-1-oxo-1,3-dihydro-isoindol-2-yl]-acetyl}-2-methyl-phenoxy)-acetic acid ethyl ester] | 226 to 228 °C |
| CCOC(=O)COc1ccc(C(=O)CN2Cc3cc(C(=N)NO)ccc3C2=O)cc1N(CC(=O)OCC)S(C)(=O)=O [Example 40, (2-{Ethoxycarbonylmethyl-methanesulfonyl-amino}-4-{2-[5-(N-hydroxycarbamimidoyl)-1-oxo-1,3-dihydro-isoindol-2-yl]-acetyl}-phenoxy)-acetic acid ethyl ester] | 165 to 167 °C |
| CC(C)COC(=O)COc1ccc(C(=O)CN2Cc3cc(C(=N)NO)ccc3C2=O)cc1 [Example 15, (4-{2-[5-(N-Hydroxycarbamimidoyl)-1-oxo-1,3-dihydro-isoindol-2-yl]-acetyl}-phenoxy)-acetic acid isobutyl ester] | 153 to 154 °C |
| CC(C)OC(=O)COc1ccc(C(=O)CN2Cc3cc(C(=N)NO)ccc3C2=O)cc1 (hydrate or solvate) [Example 9, (4-{2-[5-(N-Hydroxycarbamimidoyl)-1-oxo-1,3-dihydro-isoindol-2-yl]-acetyl}-phenoxy)-acetic acid isopropyl ester] | 164 to 166 °C |
| CCOC(=O)COc1ccc(C(=O)CN2Cc3cc(C(=N)NO)ccc3C2=O)c(O)c1Cl (hydrate or solvate) [Example 54, (2-Chloro-3-hydroxy-4-{2-[5-(N-hydroxycarbamimidoyl)-1-oxo-1,3-dihydro-isoindol-2-yl]-acetyl}-phenoxy)-acetic acid ethyl ester] | 214 to 215 °C |
| COC(=O)COc1ccc(C(=O)CN2Cc3cc(C(=N)NO)ccc3C2=O)cc1 (hydrate or solvate) [Example 2, (4-{2-[5-(N-Hydroxycarbamimidoyl)-1-oxo-1,3-dihydro-isoindol-2-yl]-acetyl}-phenoxy)-acetic acid methyl ester] | 175 to 176 °C |
| CCOC(=O)COc1ccc(C(=O)CN2Cc3cc(-c4nc(=O)o[nH]4)ccc3C2=O)c(O)c1 [Example 78, (3-Hydroxy-4-{2-[1-oxo-5-(5-oxo-2,5-dihydro-[1,2,4]oxadiazol-3-yl)-1,3-dihydro-isoindol-2-yl]-acetyl}-phenoxy)-acetic acid ethyl ester] | 223 to 225 °C |
| CCOC(=O)COc1ccc(C(=O)CN2Cc3cc(C(=N)NC(=O)OCC(C)C)ccc3C2=O)cc1Cl [Example 31, (2-Chloro-4-{2-[5-(imino-isobutoxycarbonylamino-methyl)-1-oxo-1,3-dihydro-isoindol-2-yl]-acetyl}-phenoxy)-acetic acid ethyl ester] | 178 to 179 °C |
| CC(C)COC(=O)COc1ccc(C(=O)CN2Cc3cc(C(=N)N)ccc3C2=O)cc1OCC(=O)OCC(C)C (as salt: hydroiodid) [Example 24, (4-{2-[5-Carbamimidoyl-1-oxo-1,3-dihydro-isoindol-2-yl]-acetyl}-2-isobutoxycarbonylmethoxy-phenoxy)acetic acid isobutyl ester] | 95 to 96 °C |
| CC(C)COC(=O)NC(=N)c1ccc2c(c1)CN(CC(=O)c1ccc(OCC(=O)OCc3ccccc3)cc1)C2=O (hydrate or solvate) [Example 19, (4-{2-[5-(Imino-isobutoxycarbonylamino-methyl)-1-oxo-1,3-dihydro-isoindol-2-yl]-acetyl}-phenoxy)-acetic acid benzyl ester] | 162 to 163 °C |
| CCOC(=O)COc1ccc(C(=O)CN2Cc3cc(C(=N)NO)ccc3C2=O)cc1Cl [Example 32, (2-Chloro-4-{2-[5-(N-hydroxycarbamimidoyl)-1-oxo-1,3-dihydro-isoindol-2-yl]-acetyl}-phenoxy)-acetic acid ethyl ester] | 201 to 202 °C |
| CCOC(=O)COc1cc(O)c(C(=O)CN2Cc3cc(C(=N)NO)ccc3C2=O)cc1OCC(=O)OCC (hydrate or solvate) [Example 65, (2-Ethoxycarbonylmethoxy-5-hydroxy-4-{2-[5-(N-hydroxycarbamimidoyl)-1-oxo-1,3-dihydro-isoindol-2-yl]-acetyl}-phenoxy)-acetic acid ethyl ester] | 186 to 188 °C |
| CCOC(=O)COc1ccc(C(=O)CN2Cc3cc(-c4noc(C)n4)ccc3C2=O)c(OC(C)=O)c1 [Example 80, (3-Acetoxy-4-{2-[5-(5-methyl-[1,2,4]oxadiazol-3-yl)-1-oxo-1,3-dihydro-isoindol-2-yl]acetyl}-phenoxy)-acetic acid ethyl ester] | 162 to 164 °C |
| N=C(N)c1ccc2c(c1)CN(CC(=O)c1ccc(OCC(=O)OC3CCN(C(=O)OCc4ccccc4)CC3)cc1)C2=O (hydrate or solvate) [Example 26, 4-(2-{4-[2-(5-Carbamimidoyl-1-oxo-1,3-dihydro-isoindol-2-yl)-acetyl]-phenoxy}-acetoxy)-piperidine-1-carboxylic acid benzyl ester] | 180 to 181 °C |
| CCOC(=O)COc1ccc(C(=O)CN2Cc3cc(C(=N)N)ccc3C2=O)cc1SCC (as salt: salt) (hydrate or solvate) [Example 33, (4-{2-[5-Carbamimidoyl-1-oxo-1,3-dihydro-isoindol-2-yl]-acetyl}-2-ethylsulfanyl-phenoxy)-acetic acid ethyl ester] | 185 to 186 °C |
| CCOC(=O)COc1ccc(C(=O)CN2Cc3cc(C(=N)NO)ccc3C2=O)c(OCC)c1 [Example 75, (3-Ethoxy-4-{2-[5-(N-hydroxycarbamimidoyl)-1-oxo-1,3-dihydro-isoindol-2-yl]-acetyl}-phenoxy)-acetic acid ethyl ester] | 192 to 194 °C |
| CCOC(=O)COc1ccc(C(=O)CN2Cc3cc(C(=N)N)ccc3C2=O)c(OCC(=O)OCC)c1 (as salt: salt) (hydrate or solvate) [Example 47, (4-{2-[5-Carbamimidoyl-1-oxo-1,3-dihydro-isoindol-2-yl]-acetyl}-3-ethoxycarbonylmethoxy-phenoxy)-acetic acid ethyl ester] | 186 to 188 °C |
| N=C(N)c1ccc2c(c1)CN(CC(=O)N1CCC(OCC(=O)O)CC1)C2=O (as salt: hydrochloride) (hydrate or solvate) [Example 73, (1-{2-[5-Carbamimidoyl-1-oxo-1,3-dihydro-isoindol-2-yl]-acetyl}-piperidin-4-yloxy)-acetic acid] | 135 to 136 °C |
| CCOC(=O)COC1CCN(C(=O)CCN2Cc3cc(C(=N)NO)ccc3C2=O)CC1 [Example 69, (1-{3-[5-(N-Hydroxycarbamimidoyl)-1-oxo-1,3-dihydro-isoindol-2-yl]-propionyl}-piperidin-4-yloxy)-acetic acid ethyl ester] | 151 to 152 °C |
| CCOC(=O)COc1ccc(O)c(C(=O)CN2Cc3cc(C(=N)NO)ccc3C2=O)c1 [Example 61, (4-Hydroxy-3-{2-[5-(N-hydroxycarbamimidoyl)-1-oxo-1,3-dihydro-isoindol-2-yl]-acetyl}-phenoxy)-acetic acid ethyl ester] | 158 to 159 °C |
| CCOC(=O)COc1ccc(C(=O)CN2Cc3cc(C(=N)NO)ccc3C2=O)cc1SCC (hydrate or solvate) [Example 34, (2-Ethylsulfanyl-4-{2-[5-(N-hydroxycarbamimidoyl)-1-oxo-1,3-dihydro-isoindol-2-yl]-acetyl}-phenoxy)-acetic acid ethyl ester] | 190 to 191 °C |
| CCOC(=O)COc1ccc(C(=O)CN2Cc3cc(C(=N)NO)ccc3C2=O)c(OCC(=O)OCC)c1 [Example 48, (3-Ethoxycarbonylmethoxy-4-{2-[5-(N-hydroxycarbamimidoyl)-1-oxo-1,3-dihydro-isoindol-2-yl]-acetyl}-phenoxy)-acetic acid ethyl ester] | 139 to 140 °C |
